Values joined by “and” are separate entries in the source; they are usually repeats but may differ in a detail not shown here. Equal values may be shown once. “Also recorded” adds a separate entry of the source. Read-outs that look alike come from different tables or passages of the source.
Tests used:
lung fibrosis = test system: lung fibrosis; design: method as in PMID 36154172; settings: bleomycin-induced; cited from earlier work
[1] = Plasma PK, Part A single oral doses in healthy participants; assay type: in vivo, human; settings: for AUC(0-t) / AUC(0-inf) / Cmax / Tmax / Vd/F / half-life: human, plasma; for Vd/F: read-out: Vz/F, geometric mean (CV%)
Method: A further two cohorts were recruited. […] Each individual participated in one treatment period only, with the exception of the food-effect cohort (cohort A3) in which there were two treatment periods separated by at least 7 days washout. Participants resided at the Clinical Research Unit (CRU) from 1 day ahead of dosing (day − 1) to day 3 and returned for a follow-up visit 5–7 days after their final dose. For all cohorts, doses were administered in the fasted state in the morning of day 1 of Treatment Period 1. In the food-effect cohort, doses were given 30 min after the start of a high-fat breakfast (973 calories total: approximately 150 protein calories, 250 carbohydrate calories, and 500–600 fat calories) on day 1 of Treatment Period 2. For cohorts A1 to A5 in Treatment Period 1, dosing occurred such that one pair (one active and one placebo) were dosed at least 24 h before the remaining participants. Continuation to dose those who remained was at the investigator’s discretion. Escalating doses were administered following satisfactory sponsor and investigator review of the safety and tolerability data (up to 48 h post-final dose) and PK data (up to 24 h post-final dose) from the lower dose levels.
Blood samples (4 mL) were collected in K3 EDTA tubes by venipuncture or cannulation. In Part A, samples were taken pre-dose and at 0.5, 1, 1.5, 2, 3, 4, 6, 8, 12, 16, 24, 36 and 48 h post-dose. In part B, samples were taken pre-dose on days 1 (pre-AM dose) and 10 (pre-final dose) and at 0.5, 1, 1.5, 2, 3, 4, 6, 8 and 12 h post-AM dose for day 1 and post-final dose for day 10. Samples were also taken on days 4–9 pre-AM dose, on day 11 at 24 and 36 h post-final dose, and on day 12 at 48 h post-final dose. Blood samples were centrifuged at 1500 g for 10 min at […] and split into two plasma aliquots.
Urine was collected by spot collection in Part A only before dosing and between 0–6, 6–12, 12–24, and 24–48 h post-dose. Blood and urine aliquots were stored in polypropylene tubes at − 70 °C until bioanalysis.
Noncompartmental PK analysis was performed on individual plasma and urine concentration data, using Phoenix® WinNonlin® 8.1 software (Certara USA Inc., Princeton NJ). Plasma PK parameter endpoints for Part A included area under the plasma concentration–time curve (AUC) from time 0 to infinity (AUC0–∞), AUC from time 0 to the time of the last quantifiable concentration (AUC0–tlast), maximum observed plasma concentration (Cmax), time of the maximum observed plasma concentration (Tmax), terminal half-life in plasma (t½), apparent total plasma clearance (CL/F), and apparent volume of distribution (Vz/F). Urine PK parameters calculated in Part A included amount of drug excreted in urine (Ae), percentage of dose excreted unchanged in urine (fe) and renal clearance (CLR).
Dose proportionality was analyzed for exposure parameters after fasted doses. The power model was used on AUC0–∞, AUC0–tlast, and Cmax on day 1 in Part A. Data were analyzed over two dose ranges: 50–400 mg (50 mg capsules) and 5–50 mg (5 mg capsules). An analysis of variance was used on AUC0–τ and Cmax on day 10 in Part B. The effect of food on AUC0–∞, AUC0–tlast, and Cmax at 50 mg in Part A was investigated using a mixed model which included treatment as a fixed effect and subject as a random effect.

human macrophages = test system: human macrophages; design: method as in PMID 36154172; settings: in vitro; cited from earlier work
[2] = test system: panel of different targets including enzymes, receptors, and ion channels; design: method as in PMID 36154172; settings: cited from earlier work
[3] = Maximum recommended starting dose in humans from preclinical studies; design: species or system human
Method: A starting dose of 5 mg was chosen as this was approximately twofold lower than the maximum recommended starting dose (MRSD) in humans of 9.6 mg determined from the results of a murine PD study, and was therefore not expected to have any pharmacological activity. This dose was also more than 30-fold lower than the MRSD of 162 mg calculated from the no observed adverse effect level in the toxicology species (mouse and dog).

[4] = Fraction of unbound GB1211 in plasma; assay type: in vitro ADME; settings: human
[5] = 50 mg after a high-fat meal vs fasted

OC[C@H]1O[C@H](Sc2cncc(Br)c2)[C@H](O)[C@@H](n2cc(-c3cc(F)c(F)c(F)c3)nn2)[C@H]1O [GB1211]
Fibrosis in vivo, lung (lung fibrosis): reducing fibrosis
Delay of absorption in the fed state [1, 5]: 2 h and ~ 2 h
Effect of food on systemic exposure [1, 5]: unaffected; also recorded: did not markedly affect systemic exposure; also recorded: minor food-effect on drug disposition
Dose proportionality of systemic exposure ([1]; 5–50 mg (5 mg capsule) dose range): dose-proportional manner
Dose proportionality of systemic exposure ([1]; 50–400 mg (50 mg capsule) dose range): sub-proportional manner
AUC(0-t) ([1]; oral, 5 mg, single dose 5 mg (1 × 5 mg), fasted, read-out: AUC0–tlast, geometric mean (CV%)): 677 ng·h/mL
AUC(0-inf) ([1]; oral, 5 mg, single dose 5 mg (1 × 5 mg), fasted, read-out: AUC0–∞, geometric mean (CV%)): 712 ng·h/mL
Cmax ([1]; oral, 5 mg, single dose 5 mg (1 × 5 mg), fasted, read-out: Cmax, geometric mean (CV%)): 75.2 ng/mL
Tmax ([1]; oral, 5 mg, single dose 5 mg (1 × 5 mg), fasted, read-out: Tmax, median (min–max)): 2 h
Vd/F ([1]; oral, 5 mg, single dose 5 mg (1 × 5 mg), fasted): 114 L
half-life ([1]; oral, 5 mg, single dose 5 mg (1 × 5 mg), fasted, read-out: t½, arithmetic mean (SD) (converted)): 678 min
AUC(0-t) ([1]; oral, 20 mg, single dose 20 mg (4 × 5 mg), fasted, read-out: AUC0–tlast, geometric mean (CV%)): 3150 ng·h/mL
AUC(0-inf) ([1]; oral, 20 mg, single dose 20 mg (4 × 5 mg), fasted, read-out: AUC0–∞, geometric mean (CV%)): 3350 ng·h/mL
Cmax ([1]; oral, 20 mg, single dose 20 mg (4 × 5 mg), fasted, read-out: Cmax, geometric mean (CV%)): 365 ng/mL
Tmax ([1]; oral, 20 mg, single dose 20 mg (4 × 5 mg), fasted, read-out: Tmax, median (min–max)): 1.75 h
Vd/F ([1]; oral, 20 mg, single dose 20 mg (4 × 5 mg), fasted): 104 L
half-life ([1]; oral, 20 mg, single dose 20 mg (4 × 5 mg), fasted, read-out: t½, arithmetic mean (SD) (converted)): 732 min
AUC(0-t) ([1]; oral, 50 mg, Fasted, read-out: AUC0–tlast, geometric LS means): 4180 ng·h/mL
AUC(0-inf) ([1]; oral, 50 mg, Fasted, read-out: AUC0–∞, geometric LS means): 4520 ng·h/mL
Cmax ([1]; oral, 50 mg, Fasted, read-out: Cmax, geometric LS means): 358 ng/mL
AUC(0-t) ([1]; oral, 50 mg, Fed, read-out: AUC0–tlast, geometric LS means): 4930 ng·h/mL
AUC(0-inf) ([1]; oral, 50 mg, Fed, read-out: AUC0–∞, geometric LS means): 5420 ng·h/mL
Cmax ([1]; oral, 50 mg, Fed, read-out: Cmax, geometric LS means): 389 ng/mL
AUC(0-t) ([1]; oral, 50 mg, single dose 50 mg (1 × 50 mg), fasted, read-out: AUC0–tlast, geometric mean (CV%)): 4180 ng·h/mL
AUC(0-inf) ([1]; oral, 50 mg, single dose 50 mg (1 × 50 mg), fasted, read-out: AUC0–∞, geometric mean (CV%)): 4520 ng·h/mL
Cmax ([1]; oral, 50 mg, single dose 50 mg (1 × 50 mg), fasted, read-out: Cmax, geometric mean (CV%)): 358 ng/mL
Tmax ([1]; oral, 50 mg, single dose 50 mg (1 × 50 mg), fasted, read-out: Tmax, median (min–max)): 3.04 h
Vd/F ([1]; oral, 50 mg, single dose 50 mg (1 × 50 mg), fasted): 200 L
half-life ([1]; oral, 50 mg, single dose 50 mg (1 × 50 mg), fasted, read-out: t½, arithmetic mean (SD) (converted)): 762 min
AUC(0-t) ([1]; oral, 50 mg, single dose 50 mg (1 × 50 mg), fed, read-out: AUC0–tlast, geometric mean (CV%)): 4930 ng·h/mL
AUC(0-inf) ([1]; oral, 50 mg, single dose 50 mg (1 × 50 mg), fed, read-out: AUC0–∞, geometric mean (CV%)): 5420 ng·h/mL
Cmax ([1]; oral, 50 mg, single dose 50 mg (1 × 50 mg), fed, read-out: Cmax, geometric mean (CV%)): 389 ng/mL
Tmax ([1]; oral, 50 mg, single dose 50 mg (1 × 50 mg), fed, read-out: Tmax, median (min–max)): 5 h
Vd/F ([1]; oral, 50 mg, single dose 50 mg (1 × 50 mg), fed): 169 L
half-life ([1]; oral, 50 mg, single dose 50 mg (1 × 50 mg), fed, read-out: t½, arithmetic mean (SD) (converted)): 774 min
AUC(0-t) ([1]; oral, 50 mg, single dose 50 mg (10 × 5 mg), fasted, read-out: AUC0–tlast, geometric mean (CV%)): 6890 ng·h/mL
AUC(0-inf) ([1]; oral, 50 mg, single dose 50 mg (10 × 5 mg), fasted, read-out: AUC0–∞, geometric mean (CV%)): 7480 ng·h/mL
Cmax ([1]; oral, 50 mg, single dose 50 mg (10 × 5 mg), fasted, read-out: Cmax, geometric mean (CV%)): 861 ng/mL
Tmax ([1]; oral, 50 mg, single dose 50 mg (10 × 5 mg), fasted, read-out: Tmax, median (min–max)): 1.75 h
Vd/F ([1]; oral, 50 mg, single dose 50 mg (10 × 5 mg), fasted): 133 L
half-life ([1]; oral, 50 mg, single dose 50 mg (10 × 5 mg), fasted, read-out: t½, arithmetic mean (SD) (converted)): 828 min
AUC(0-t) ([1]; oral, 100 mg, single dose 100 mg (2 × 50 mg), fasted, read-out: AUC0–tlast, geometric mean (CV%)): 5910 ng·h/mL
AUC(0-inf) ([1]; oral, 100 mg, single dose 100 mg (2 × 50 mg), fasted, read-out: AUC0–∞, geometric mean (CV%)): 6380 ng·h/mL
Cmax ([1]; oral, 100 mg, single dose 100 mg (2 × 50 mg), fasted, read-out: Cmax, geometric mean (CV%)): 525 ng/mL
Tmax ([1]; oral, 100 mg, single dose 100 mg (2 × 50 mg), fasted, read-out: Tmax, median (min–max)): 3.5 h
Vd/F ([1]; oral, 100 mg, single dose 100 mg (2 × 50 mg), fasted): 282 L
half-life ([1]; oral, 100 mg, single dose 100 mg (2 × 50 mg), fasted, read-out: t½, arithmetic mean (SD) (converted)): 768 min
AUC(0-t) ([1]; oral, 200 mg, single dose 200 mg (4 × 50 mg), fasted, read-out: AUC0–tlast, geometric mean (CV%)): 11500 ng·h/mL
AUC(0-inf) ([1]; oral, 200 mg, single dose 200 mg (4 × 50 mg), fasted, read-out: AUC0–∞, geometric mean (CV%)): 12900 ng·h/mL
Cmax ([1]; oral, 200 mg, single dose 200 mg (4 × 50 mg), fasted, read-out: Cmax, geometric mean (CV%)): 1010 ng/mL
Tmax ([1]; oral, 200 mg, single dose 200 mg (4 × 50 mg), fasted, read-out: Tmax, median (min–max)): 3.5 h
Vd/F ([1]; oral, 200 mg, single dose 200 mg (4 × 50 mg), fasted): 344 L
half-life ([1]; oral, 200 mg, single dose 200 mg (4 × 50 mg), fasted, read-out: t½, arithmetic mean (SD) (converted)): 930 min
AUC(0-t) ([1]; oral, 400 mg, single dose 400 mg (8 × 50 mg), fasted, read-out: AUC0–tlast, geometric mean (CV%)): 19000 ng·h/mL
AUC(0-inf) ([1]; oral, 400 mg, single dose 400 mg (8 × 50 mg), fasted, read-out: AUC0–∞, geometric mean (CV%)): 21600 ng·h/mL
Cmax ([1]; oral, 400 mg, single dose 400 mg (8 × 50 mg), fasted, read-out: Cmax, geometric mean (CV%)): 1550 ng/mL
Tmax ([1]; oral, 400 mg, single dose 400 mg (8 × 50 mg), fasted, read-out: Tmax, median (min–max)): 4 h
Vd/F ([1]; oral, 400 mg, single dose 400 mg (8 × 50 mg), fasted): 398 L
half-life ([1]; oral, 400 mg, single dose 400 mg (8 × 50 mg), fasted, read-out: t½, arithmetic mean (SD) (converted)): 912 min
Tmax ([1]; oral, 5–50 mg (5 mg capsule), single dose, fasted, read-out: Median Tmax, range across doses): 1.75 to 2 h
Tmax ([1]; oral, 50–400 mg (50 mg capsule), single dose, fasted, read-out: Median Tmax, range across doses): 3.04 to 4 h
half-life ([1]; po, single and multiple oral doses, fasted, read-out: Mean half-life, range across doses): 660 to 960 min
Tmax ([1]; po, single and multiple oral doses, fasted, read-out: Time of maximum plasma concentration (median), range across doses): 1.75 to 4 h
half-life ([1]; po, single oral dose, read-out: Arithmetic mean terminal half-life (t½), range across doses): 678 to 930 min
CL/F, geometric mean (CV%) ([1]; single dose 5 mg (1 × 5 mg), fasted): 7.02 (24.5) L/h
CL/F, geometric mean (CV%) ([1]; single dose 20 mg (4 × 5 mg), fasted): 5.97 (10.2) L/h
CL/F, geometric mean (CV%) ([1]; single dose 50 mg (1 × 50 mg), fasted): 11.1 (43.2) L/h
CL/F, geometric mean (CV%) ([1]; single dose 50 mg (1 × 50 mg), fed): 9.23 (21.5) L/h
CL/F, geometric mean (CV%) ([1]; single dose 50 mg (10 × 5 mg), fasted): 6.69 (42.6) L/h
CL/F, geometric mean (CV%) ([1]; single dose 100 mg (2 × 50 mg), fasted): 15.7 (21.1) L/h
CL/F, geometric mean (CV%) ([1]; single dose 200 mg (4 × 50 mg), fasted): 15.5 (33.7) L/h
CL/F, geometric mean (CV%) ([1]; single dose 400 mg (8 × 50 mg), fasted): 18.5 (25.0) L/h
Galectin-3 expression on human macrophages (human macrophages): potently inhibited galectin-3 expression
Safety profile against a panel of different targets [2]: favorable safety profile
Maximum recommended starting dose (MRSD) ([3]; calculated from the no observed adverse effect level in the toxicology species (mouse and dog)): 162 mg
Maximum recommended starting dose (MRSD) in humans ([3]; determined from the results of a murine PD study): 9.6 mg
fraction unbound [4]: 0.0534
